# Key:
# YAP-TEAD interaction = assay: SK-HEP-1 reporter assay (8xTEAD responsive elements driving NanoLuc luciferase); format: cell-based; conditions: Homo sapiens, SK-HEP1, SK-HEP-1 reporter assay
# How it was run: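 Reporter read-out: NanoLuc luminescence from 8×TEAD elements stably integrated in SK-HEP-1 cells, after 24 h compound exposure at 37° C. Ten concentrations tested in duplicate, top 30 μM final, 0.3% DMSO; IC50 from curve.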
# NCI-H226 cells = assay: Viability assay in NCI-H226 (Yap-dependent) cells, CyQuant; format: cell-based, human; conditions: Homo sapiens, NCI-H226, 96 h
# How it was run: (§1)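 Seeded cells were dosed 24 h later in duplicate (10-point, 1:3 dilutions, top 30 μM final, 0.3% DMSO) and incubated 96 h at 37 °C. Viability was read with CyQUANT DNA dye after 1 h, fluorescence bottom read. NCI-H226 in RPMI 1640 medium; SW620 YAP/TAZ CRISPR knockout in DMEM/F-12 medium.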
# SW620 Yap KO cells = assay: Viability assay in SW620 Yap KO (Yap independent) cells, CyQuant; format: cell-based; conditions: Homo sapiens, SW-620, 96 h, n.d. = value not detectable below threshold given in parentheses
# How it was run: as §1
# [1] = n.d. = value not detectable below threshold given in parentheses
Structure (SMILES),IC50 (YAP-TEAD interaction; class symbols) [nM],IC50 (NCI-H226 cells; class symbols) [nM],IC50 (SW620 Yap KO cells) [nM],IC50 (NCI-H226 cells; [1]) [nM],IC50 (YAP-TEAD interaction; [1]) [nM]
"C[C@@H](NC(=O)c1ccc2c(c1)c1nn(C)nc1n2-c1ccc(C(F)(F)F)cc1)c1ccccn1 [Example C176, 2-methyl-N-[(1R)-1-(pyridin-2-yl)ethyl]-4-[4-(trifluoromethyl)phenyl]-2H,4H-[1,2,3]triazolo[4,5-b]indole-7-carboxamide]",10 to 100,100 to 1000,> 30000,–,–
"C[C@@H](NC(=O)c1ccc2c(c1)c1nn(C)nc1n2-c1ccc(C(F)(F)F)cc1)c1ccncc1 [Example C180, 2-methyl-N-[(1R)-1-(pyridin-4-yl)ethyl]-4-[4-(trifluoromethyl)phenyl]-2H,4H-[1,2,3]triazolo[4,5-b]indole-7-carboxamide]",10 to 100,1 to 100,> 30000,–,–
"C[C@@H](NC(=O)c1ccc2c(c1)c1nn(C)nc1n2-c1ccc(C(F)(F)F)cc1)c1cccc(N)n1 [Example C181, N-[(1R)-1-(6-aminopyridin-2-yl)ethyl]-2-methyl-4-[4-(trifluoromethyl)phenyl]-2H,4H-[1,2,3]triazolo[4,5-b]indole-7-carboxamide]",10 to 100,1 to 100,> 3000,–,–
"Cn1cc2c3cc(CO)ccc3n(-c3ccc(C(F)(F)F)cc3)c2n1 [Example C182, {2-methyl-8-[4-(trifluoromethyl)phenyl]-2H,8H-pyrazolo[3,4-b]indol-5-yl}methanol]",10 to 100,100 to 1000,> 30000,–,–
"C[C@H](NC(=O)c1ccc2c(c1)c1nn(C)nc1n2-c1ccc(C(F)(F)F)cc1)c1cccc(N)n1 [Example C183, N-[(1S)-1-(6-aminopyridin-2-yl)ethyl]-2-methyl-4-[4-(trifluoromethyl)phenyl]-2H,4H-[1,2,3]triazolo[4,5-b]indole-7-carboxamide]",100 to 10000,1 to 100,> 3000,–,–
"C[C@H](NC(=O)c1ccc2c(c1)c1nn(C)nc1n2-c1ccc(C(F)(F)F)cc1)c1ccccn1 [Example C184, 2-methyl-N-[(1S)-1-(pyridin-2-yl)ethyl]-4-[4-(trifluoromethyl)phenyl]-2H,4H-[1,2,3]triazolo[4,5-b]indole-7-carboxamide]",10 to 100,1 to 100,> 30000,–,–
"C[C@H](NC(=O)c1ccc2c(c1)c1nn(C)nc1n2-c1ccc(C(F)(F)F)cc1)c1ccncc1 [Example C185, 2-methyl-N-[(1S)-1-(pyridin-4-yl)ethyl]-4-[4-(trifluoromethyl)phenyl]-2H,4H-[1,2,3]triazolo[4,5-b]indole-7-carboxamide]",10 to 100,1 to 100,> 3000,–,–
"[2H]C1([2H])C(n2c3ccc(C(=O)O)cc3c3cn(C)nc32)C([2H])([2H])C([2H])([2H])C([2H])([2H])C1([2H])[2H] [Example C193, 8-[(2,2,3,3,4,4,5,5,6,6-^2H10)cyclohexyl]-2-methyl-2H,8H-pyrazolo[3,4-b]indole-5-carboxylic acid]",100 to 10000,–,> 30000,> 30000,–
"[2H]C1([2H])C(n2c3ccc(C(=O)NC)cc3c3cn(C)nc32)C([2H])([2H])C([2H])([2H])C([2H])([2H])C1([2H])[2H] [Example C194, 8-[(2,2,3,3,4,4,5,5,6,6-^2H10)cyclohexyl]-N,2-dimethyl-2H,8H-pyrazolo[3,4-b]indole-5-carboxamide]",100 to 10000,1000 to 10000,> 30000,–,–
"[2H]C1([2H])C(n2c3ccc(C(=O)N[C@@H](CO)c4ccccn4)cc3c3cn(C)nc32)C([2H])([2H])C([2H])([2H])C([2H])([2H])C1([2H])[2H] [Example C196, 8-[(2,2,3,3,4,4,5,5,6,6-^2H10)cyclohexyl]-N-[(1R)-2-hydroxy-1-(pyridin-2-yl)ethyl]-2-methyl-2H,8H-pyrazolo[3,4-b]indole-5-carboxamide]",100 to 10000,100 to 1000,> 30000,–,–
"Cn1cnc2c1c1cc(C3CC(Cl)=NO3)ccc1n2-c1ccc(C(F)(F)F)cc1 (stereo not drawn) [Example C198, 3-chloro-5-{1-methyl-4-[4-(trifluoromethyl)phenyl]-1H,4H-imidazo[4,5-b]indol-7-yl}-4,5-dihydro-1,2-oxazole]",10 to 100,1 to 100,> 3000,–,–
"Cn1cc2c3cc(C(=O)NCc4ccncc4)ccc3n(C3CC4(C3)CC(F)(F)C4)c2n1 [Example C208, 8-{6,6-difluorospiro[3.3]heptan-2-yl}-2-methyl-N-[(pyridin-4-yl)methyl]-2H,8H-pyrazolo [3,4-b]indole-5-carboxamide]",10 to 100,100 to 1000,> 30000,–,–
"Cn1cc2c3cc(C(=O)NCc4ccncc4)ccc3n(-c3ccc(C(F)F)cc3)c2n1 [Example C209, 8-[4-(difluoromethyl)phenyl]-2-methyl-N-[(pyridin-4-yl)methyl]-2H,8H-pyrazolo[3,4-b]indole-5-carboxamide]",10 to 100,100 to 1000,> 30000,–,–
"Cn1cc2c3cc(C(=O)N=S(=O)(CCO)Cc4ccncc4)ccc3n(-c3ccc(C(F)(F)F)cc3)c2n1 (stereo not drawn) [Example C216, N-[(2-hydroxyethyl)(oxo)[(pyridin-4-yl)methyl]-λ^6-sulfanylidene]-2-methyl-8-[4-(trifluoromethyl)phenyl]-2H,8H-pyrazolo[3,4-b]indole-5-carboxamide]",–,1 to 100,> 3000,–,> 9500
"Cc1cc(C(CO)NC(=O)c2ccc3c(c2)c2cn(C)nc2n3-c2ccc(C(F)(F)F)cc2)ccn1 (stereo not drawn) [Example C219, N-[2-hydroxy-1-(2-methylpyridin-4-yl)ethyl]-2-methyl-8-[4-(trifluoromethyl)phenyl]-2H,8H-pyrazolo[3,4-b]indole-5-carboxamide]",10 to 100,100 to 1000,> 3000,–,–
"Cc1cc(C(CO)NC(=O)c2ccc3c(c2)c2nn(C)nc2n3-c2ccc(C(F)(F)F)cc2)ccn1 (stereo not drawn) [Example C220, N-[2-hydroxy-1-(2-methylpyridin-4-yl)ethyl]-2-methyl-4-[4-(trifluoromethyl)phenyl]-2H,4H-[1,2,3]triazolo[4,5-b]indole-7-carboxamide]",10 to 100,1 to 100,> 3000,–,–
"Cn1cc2c3cc(C(=O)NC(CCO)c4ccccn4)ccc3n(-c3ccc(C(F)(F)F)cc3)c2n1 (stereo not drawn) [Example C225, N-[3-hydroxy-1-(pyridin-2-yl)propyl]-2-methyl-8-[4-(trifluoromethyl)phenyl]-2H,8H-pyrazolo[3,4-b]indole-5-carboxamide]",10 to 100,1 to 100,> 30000,–,–
"Cn1nc2c3cc(C(=O)NC(CCO)c4ccccn4)ccc3n(-c3ccc(C(F)(F)F)cc3)c2n1 (stereo not drawn) [Example C226, N-[3-hydroxy-1-(pyridin-2-yl)propyl]-2-methyl-4-[4-(trifluoromethyl)phenyl]-2H,4H-[1,2,3]triazolo[4,5-b]indole-7-carboxamide]",10 to 100,1 to 100,> 3000,–,–
"CNC(=O)c1cnc2c(c1)c1cn(C)nc1n2-c1ccc(C(F)(F)F)cc1 [Example C227, N,4-dimethyl-7-[4-(trifluoromethyl)-phenyl]-4,5,7,9-tetraazatricyclo [6.4.0.0^2,6]dodeca-1(8),2,5,9,11-pentaene-11-carboxamide]",10 to 100,1 to 100,> 30000,–,–
"C[C@H](CO)NC(=O)c1ccc2c(c1)c1cn(C)nc1n2-c1ccc(C(F)F)cc1 [Example C247, 8-[4-(difluoromethyl)phenyl]-N-[(2R)-1-hydroxypropan-2-yl]-2-methyl-2H,8H-pyrazolo[3,4-b]indole-5-carboxamide]",10 to 100,1 to 100,> 30000,–,–
"Cn1cc2c3cc(C(=O)N[C@@H](CO)c4ccccn4)ccc3n(-c3ccc(C(F)F)cc3)c2n1 [Example C248, 8-[4-(difluoromethyl)phenyl]-N-[(1R)-2-hydroxy-1-(pyridin-2-yl)ethyl]-2-methyl-2H,8H-pyrazolo[3,4-b]indole-5-carboxamide]",10 to 100,1 to 100,> 30000,–,–
"Cn1nc2c3cc(C(=O)N[C@H](CO)c4ccccn4)ccc3n(-c3ccc(C(F)(F)F)cc3)c2n1 [Example C249, N-[(1S)-2-hydroxy-1-(pyridin-2-yl)ethyl]-2-methyl-4-[4-(trifluoromethyl)phenyl]-2H,4H-[1,2,3]triazolo[4,5-b]indole-7-carboxamide]",10 to 100,100 to 1000,> 30000,–,–
"C[C@@H](NC(=O)c1ccc2c(c1)c1cn(C)nc1n2-c1ccc(C(F)(F)F)cc1)c1ccc(N)nc1 [Example C257, N-[(1R)-1-(6-aminopyridin-3-yl)ethyl]-2-methyl-8-[4-(trifluoromethyl)phenyl]-2H,8H-pyrazolo[3,4-b]indole-5-carboxamide]",100 to 10000,1 to 100,> 30000,–,–
"Cn1ccc(C(CO)NC(=O)c2ccc3c(c2)c2cn(C)nc2n3-c2ccc(C(F)(F)F)cc2)n1 (stereo not drawn) [Example C260, N-[2-hydroxy-1-(1-methyl-1H-pyrazol-3-yl)ethyl]-2-methyl-8-[4-(trifluoromethyl)phenyl]-2H,8H-pyrazolo[3,4-b]indole-5-carboxamide]",10 to 100,1 to 100,> 30000,–,–
"Cn1nc2c3cc(C(=O)N=S4(=O)CCNCC4)ccc3n(-c3ccc(C(F)(F)F)cc3)c2n1 [Example C261, 2-methyl-N-(1-oxo-1lambda6-thiomorpholin-1-ylidene)-4-[4-(trifluoromethyl)phenyl]-2H,4H-[1,2,3]triazolo[4,5-b]indole-7-carboxamide]",10 to 100,1 to 100,> 30000,–,–

# Reference: patent publication US20240270748A1 (Merck Patent GmbH, priority 2021, published 2024)
